{"source": "patent US20260273011A1", "about": "“COMPOSITION COMPRISING STEWARTIA PSEUDOCAMELLIA EXTRACT AS ACTIVE INGREDIENT FOR PREVENTION OR TREATMENT OF DEMENTIA” (priority 2022, published 2026)", "key": {"[1]": {"test_system": "human neuroblastoma SH-SY5Y cells", "assay": "Cell death concentration for Aβ-peptide 25-35 (MTS)", "assay_type": "cell-based", "conditions": "Aβ 20 μM, 24 hours", "experimental": "(§1) To measure the neuronal cell death concentration by Aβ 25-35, Aβ-protein fragment 25-35 (Sigma-Aldrich, A4559-1 MG) was purchased and used.\n(§2) For the aggregation of Aβ, it was dissolved in distilled water and allowed to react at 37° C. for five days at 150 rpm."}, "[2]": {"test_system": "human neuroblastoma SH-SY5Y cells", "assay": "Neuroprotective effect against H2O2 cytotoxicity (MTS)", "assay_type": "cell-based", "conditions": "50 μM H2O2 treatment", "experimental": "After removing the medium, […], which has a cell viability of about 50%, was treated with fresh medium, and then 10 μl of the samples of Examples 1 to 4 and Comparative Example 1 were treated at each concentration, and the resulting mixtures were allowed to react at 95% humidity, 5% CO2, and 37° C. for 24 hours."}, "[3]": {"test_system": "human neuroblastoma SH-SY5Y cells", "assay": "Neuroprotective effect against Aβ-peptide 25-35 cytotoxicity (MTS)", "assay_type": "cell-based", "parameters": "dose or concentration left out as unconfirmed", "conditions": "Aβ treatment", "experimental": "as §1, §2"}, "[4]": {"test_system": "human neuroblastoma SH-SY5Y cells", "assay": "Human neuroblastoma SH-SY5Y cell toxicity (MTS)", "assay_type": "cell-based", "experimental": "Neuronal cells (human neuroblastoma SH-SY5Y) were obtained from the Korean Cell Line Bank (KCLB, Seoul, Korea). The medium used was a minimum essential medium (SH30024.01, Cytiva, USA) containing 10% fetal bovine serum (FBS, Gibco, CA, USA) medium, 25 mM 4-(2-hydroxyethyl)-1-piperazine ethanesulfonic acid (HEPES), and 25 mM NaHCO3. The cells were cultured in an incubator controlled at 95% humidity, 5% CO2, and 37° C., and an antibiotic for the medium (penicillin-streptomycin, Gibco, CA, USA) was used to suppress microbial contamination or proliferation. When the cells covered about 80% of the dish, the dish was washed with phosphate-buffered saline-ethylenediaminetetraacetic acid (PBS-EDTA, Thermo Fisher Scientific, Massachusetts, USA), and then 1 ml of 0.05% trypsin-EDTA (Gibco, Thermo Fisher Scientific, Massachusetts, USA) was used to detach the cells attached to the bottom of the dish and subculture them. The medium was exchanged with fresh medium every 48 to 72 hours to culture the cells.\nAfter removing the medium, 100 μl of the sample diluted with fresh medium was applied and allowed to react with the cells for 24 hours in an incubator at 95% humidity, 5% CO2, and 37° C.\nIn other words, 1 ml of the reagent was diluted with 9 ml of medium (DMEM high glucose, free FBS), and 100 μl of the mixture was added to each well."}, "SH-SY5Y cells": {"test_system": "SH-SY5Y cells", "assay": "ROS generation suppression ability in neurons (DCF-DA, H2O2)", "assay_type": "cell-based, human", "conditions": "ursolic acid 0.1 to 5 μg/ml", "experimental": "The generation of ROS is measured by the intensity of fluorescent material generation using 2′,7′-dichlorofluorescin diacetate (DCF-DA), and the principle is that 2′,7′-dichlorofluorescin (DCF) in a reduced or acetylated form releases a fluorescent material ([…]) when the acetate group is removed by the […] and ROS generated within cells.\nSH-SY5Y cells were plated into a 96-well plate (100 μl) at a concentration of 5×10^4 cells/well and cultured for 24 hours. After the culture, the medium was removed, and the sample was treated at an appropriate concentration using a medium containing no serum and then cultured for 24 hours. After 24 hours, 100 μl of PBS was added and the resulting mixture was washed, and this process was repeated three times. DCF-DA dissolved in dimethyl sulfoxide (DMSO) was diluted to 20 μM (in PBS), and 100 μl of the diluted solution was added and incubated for 20 minutes. After adding 100 μl of 100 μM H2O2 (in PBS), the mixture was allowed to react for 30 minutes, and the fluorescence intensity was measured at 486 nm and 535 nm using an enzyme-linked immunosorbent assay (ELISA) reader."}, "[5]": {"test_system": "human neuroblastoma SH-SY5Y cells", "conditions": "H2O2 50 μM, 24 hours", "method": "First, the cells were plated into a 96-well plate at a concentration of 5×10^3 cells/well, and then cultured for 24 hours at 95% humidity, 5% CO2, and 37° C. for stabilization. After removing the medium, 10 μl of H2O2 diluted with fresh medium was treated at each concentration, and the resulting mixture was allowed to react for 24 hours at 95% humidity, 5% CO2, and 37° C.\nThe viability of the cells was measured using the MTS (CellTiter 96® AQueous One Solution Cell Proliferation Assay, Promega, USA) reagent. In other words, 10 μl of the reagent was treated per well, and after a reaction at 37° C. for 60 minutes, the absorbance was measured at 490 nm using a microplate reader (Molecular Devices LLC, VersaMax ELISA Microplate Reader, USA)."}}, "note": "Read-outs that look alike come from different tables or passages of the source. Ends that are not written are not given here.", "data": [{"compound": "GSNKGAIIGLM [Aβ, Aβ-protein fragment 25-35]", "values": [{"measurement": "cell viability", "setting": "[1]", "result": "approximately 50%"}]}, {"compound": "C[C@H]1[C@H](C)CC[C@]2(C(=O)O)CC[C@]3(C)C(=CC[C@@H]4[C@@]5(C)CC[C@H](O)C(C)(C)[C@@H]5CC[C@]43C)[C@H]12", "note": "[ursolic acid]", "values": [{"measurement": "neuroprotective effect against H2O2 cytotoxicity", "setting": "[2]", "result": "high cell protection efficacy"}, {"measurement": "neuroprotective effect against Aβ-peptide 25-35 cytotoxicity", "setting": "[3]", "result": "significant effect"}, {"measurement": "concentration at which toxicity on neurons was exhibited", "setting": "[4]", "result": "≥ 10", "unit": "µg/mL"}, {"measurement": "ROS generation suppression ability", "setting": "SH-SY5Y cells", "result": "significant suppression activity"}]}, {"compound": "OO", "note": "[Example H2O2, Hydrogen peroxide]", "values": [{"measurement": "cell viability", "setting": "[5]", "result": "approximately 50%"}]}]}
